From patent US12673106B2, “Modulators of nuclear receptor subfamily 4 group A member 1 (NR4A1) and uses thereof” (University of Florida Research Foundation, Incorporated, priority 2020, dated 2026)

Key:
NR4A1 [1] = biological target: T1, NR4A1 (Homo sapiens, UniProt P22736); experiment: Degradation of endogenous NR4A1 in T47D breast cancer cells; format: cell-based; parameters: degrade endogenous NR4A1 in T47D breast cancer cells; endogenous in cells; host or cells: T47D breast cancer cells; settings: 1 μM
NR4A1 [2] = biological target: T1, NR4A1; experiment: E3 ligase-mediated NR4A1 degradation in transfected HEK293T cells (immunoblotting); format: cell-based; settings: HEK293T transfected with NR4A1, with or without CRBN or VHL; 3 μM, 6 hrs
Procedure: FIG. 4A. Efficiency of NR4A1-Ps in protein degradation using 3 examples of NR4A1-Ps based on CRBN (NR-C91, 92, 93) and 4 based on VHL (NR-V03, 04, 07, 50), with NR-V04 showing the best efficacy in NR4A1 degradation. FIG. 4B. NR4A1 degradation is mediated by targeted E3 ligases. HEK293T cells were transfected with NR4A1, with or without overexpression of CRBN or VHL. 36 hrs after transfection, cells were treated with 3 μM of NR-C91 or NR-V04 for 6 hrs for immunoblotting.
(§1) Developing NR4A1-Ps. Due to the diverse function of NR4A1 in different cancer types, both agonistic and antagonistic ligands of NR4A1 are of interest in development (25). […] 4 cytosporone-B-based and 10 celastrol-based NR4A1-Ps using polyethylene glycol (PEG) linkers of various length have already been synthesized (FIG. 3 showing several examples).

CD8+ T cells = experiment: CD8 T cell activation in B16F10 tumor bearing mice, flow cytometry; format: in vivo, mouse; settings: 1.8 mg/kg, one week (two doses)
Procedure: B16F10 tumor bearing mice were treated with control vehicle or 1.8 mg/kg of NR-V04 for one week (two doses). CD8 T cells were analyzed for activation from tumors, spleen and blood. FIG. 15A. CD44+CD62L+(central memory, CM) and FIG. 15B. CD44+CD62L− (effector memory, EM) of CD8+ T cells were quantitated using flow cytometry.
We also determined the impact of NR-V04 on exhaustion and activation of CD8^+ T cells.

human T cells from PBMC = experiment: T cells from human PBMC of cancer patients, CD3/CD28 co-stimulated, flow cytometry; format: cell-based; settings: 500 nM or 1 uM, two days
Procedure: T cells were purified from human PBMC from cancer patients and co-stimulated with anti-CD3/CD28 dynabeads for 3 days, following with DMSO, 500 nM or 1 uM of NR-V04 treatment for two days. FIG. 14A-14B, different sub-population of T cell numbers were quantitated via flow cytometry (FIG. 14A), with Treg panel separated (FIG. 14B).
In agreement with the in vivo models, we also activated all human T cells from PBMC of cancer patients, following with the treatment of various concentrations of NR-V04.

RENCA cells = experiment: RENCA renal cancer model in Balb/C mice; format: in vivo, mouse
Procedure: RENCA cells (10,000 per injection) were injected into s.c. of 8-week Balb/C mice, following with vehicle or NR-V04 treatment i.p. at 8 mg/kg weekly, starting at day 15 after tumor cell injection. Tumor volume was recorded.
(§2) FIG. 13A-FIG. 13C. Influence of NR-V04 treatment on TI-Tregs from (FIG. 13A) B16F10 melanoma, 1.8 mg/kg twice weekly for 3 weeks; (FIG. 13B) RENCA renal cancer model, 20 mg/kg once a week for 3 weeks; (FIG. 13C-13D) Py8119 breast cancer model, 8 mg/kg once a week for 3 weeks; with FIG. 13C showing the ratios between Treg/Tconv and FIG. 13D showing Treg/CD8+ T cell ratios.
Some of the above tumor models will be included, initially using immune responsive tumors including RENCA and MC38 model. […] Tumor volumes will be determined twice weekly by a caliper and calculated as length×width^2×0.5. Animal will be terminated once the largest tumors reach 2 cm in diameter per IACUC protocol (size is justified to determine lung metastasis). • The parameters include: • Primary tumors—Tumors will be cut into pieces and used for: a) immunohistochemical (IHC) staining (embedding in OCT compound and freezing). […]

B16F10 melanoma [3] = experiment: B16F10 melanoma model in C57BL/6J mice; format: in vivo, mouse
Procedure: (§3) FIG. 10A-10C. […] Tumor growth were monitored via palpation. N=7 mice/group. FIG. 10A and FIG. 10B are the same experiment, but FIG. 10B includes only control vehicle and NR-V04 treated groups in FIG. 10B.
as §2

B16F10 melanoma [4] = experiment: B16F10 melanoma model in NSG mice; format: in vivo, mouse; settings: 1.8 mg/kg twice weekly for 3 weeks
Description: as §3

[5] = Body weight and T cell development in normal mice; format: in vivo, mouse; settings: up to 3 weeks
Description: Thymus (FIG. 12A) and spleen (FIG. 12B) were collected for T cell quantitation by flow cytometry.

[6] = Pharmacokinetics in mouse, plasma by LC/MS/MS; format: in vivo
Procedure: Plasma concentrations of NR-V04 were determined by LC/MS/MS (Instrument: AB Sciex 6500 (#15)) using service from BioDuro Inc, at different time points after mice receiving iv injection of 2 mg/kg or ip injection of 20 mg/kg. PK values for iv (2 mg/kg, FIG. 17A) or ip (20 mg/kg, FIG. 17B) are shown and summarized (FIG. 17C).
PK was determined for NR-V04 for iv. injection of 2 mg/kg or ip injection of 20 mg/kg (FIG. 17).

OT-1 CD8 T cells = experiment: OVA peptide-induced exhaustion of OT-1 CD8 T cells, flow cytometry; format: cell-based, mouse; settings: 1 μM
Procedure: Splenic CD8+ T cells were purified from OT-1 transgenic mice, treated with 10 ng/ml of OVA peptides for 5 days, following with NR-V04 treatment at 250 nM, 500 nM or 1 μM. CD39+, granzyme B+(P<0.0001), Lag3+ or PD-1+CD8 T cells (P<0.05) were quantitated using flow cytometry.
To induce antigen specific exhaustion of CD8^+ T cells, we purified CD8^+ T cells from OT-1 mice that expresses T cell receptor targeting OVA antigen. We treated these OT-1 CD8 T cells with OVA peptide for 5 days to induce their exhaustion, following with NR-V04 treatment with various concentrations.

Py8119 cells = experiment: Py8119 breast cancer model in C57/BL6 mice; format: in vivo, mouse
Procedure: FIG. 7A-FIG. 7D. Py8119 cells were injected into #4 mammary fatpad of 8-week female C57/BL6 mice, following with vehicle or NR-V04 treatment i.p. at 8 mg/kg weekly, starting at day 15 after tumor cell injection. Body weight (FIG. 7A), tumor growth (data not shown), and immune cell profiling by flow cytometry from spleen, tumor, and blood were shown (FIG. 7B-7D). CD45+CD3+CD8+ T cells (FIG. 7B), CD45+CD3+CD4+T (FIG. 7C), and ratios of CD4+Foxp3+Tregs to total T cells (T), to total CD4 T cells (CD4), to total CD4conv (non Treg CD4 T cells), or to CD8 T cells (FIG. 7D) were shown. * P<0.05; ** P<0.01.
as §2
Syngeneic models for antitumor activities. Syngeneic tumor models include breast cancer models: 1) E0771 as luminal breast cancer (C57BL/6 background) (36-38), 2) Py8119 (C57BL/6) (37, 39, 40) and 3) 4T1 (Balb/C) (41, 42) as triple negative breast cancer, and 4) MT2 as HER2-positive breast cancer (FVB/N) (43, 44), all of which develop metastasis upon orthotopic tumor injections; 5) MC-38 colon cancer model; 6) Renca renal carcinoma model; 7) B16 melanoma models. MC-38 is known to be responsive to ICIs and Renca is known to respond of Treg suppression in their tumor growth. B16 is only partially responsive to ICI treatment when anti-CTLA-4 and anti-PD-1 are combined. Careful titration of the minimal cell numbers provides consistent tumor growth and/or metastasis. For testing the efficacy of NR-V04 or other leads, tumor-bearing mice will be treated with either non-targeting NR-V04-NT or NR-V04, or other leads, starting 14 days after tumor cell injection when 3-5 mm in diameter tumor growth is typically seen in all models. The dose and frequency will be used based on the data from SA1.2. Based on work on BCL-XL PROTAC (22), weekly injection of the leads should be sufficient to maintain effective doses in various tissues.

MCF7-Tam cells = experiment: MTS viability assay, MCF7-Tam cells; format: cell-based; settings: relative to celastrol or NR-V04-NT
Description: (§4) NR4A1-Ps selectively kill breast cancer cells. Since NR-V04 is very efficient in NR4A1 degradation, a negative control, NR-V04-NT, was synthesized.

NR4A1 [7] = biological target: T2, NR4A1 (Mus musculus, UniProt P12813); experiment: NR4A1 degradation in MC38 tumors of treated mice (tumor lysate immunoblotting); format: in vivo; settings: MC38-tumor bearing mice, 1.8 mg/kg twice weekly for 3 weeks
T2 construct: from tissue; host or cells: MC38 tumors from treated tumor-bearing mice (tumor lysates)
Description: Tumor lysates were used for immunoblotting.
as §1

T47D cells = experiment: MTS viability assay, T47D cells; format: cell-based; settings: relative to celastrol or NR-V04-NT
Description: as §4

MCF10A = experiment: MTS viability assay, MCF10A normal breast epithelial cells; format: cell-based, human; settings: relative to celastrol
Description: as §4

[8] = Toxicity and body weight in tumor-bearing mice (FIG. 11); format: in vivo; settings: 0.75 mg/kg celastrol twice weekly for 3 weeks
Procedure: Body weight was recorded weekly.

NR4A1 [9] = biological target: T1, NR4A1; parameters: degrade endogenous NR4A1 in T47D breast cancer cells; endogenous in cells; host or cells: T47D breast cancer cells; settings: NR4A1 ligand used as warhead; cited from earlier work

T1 sequence (P22736 whole entry, species assumed): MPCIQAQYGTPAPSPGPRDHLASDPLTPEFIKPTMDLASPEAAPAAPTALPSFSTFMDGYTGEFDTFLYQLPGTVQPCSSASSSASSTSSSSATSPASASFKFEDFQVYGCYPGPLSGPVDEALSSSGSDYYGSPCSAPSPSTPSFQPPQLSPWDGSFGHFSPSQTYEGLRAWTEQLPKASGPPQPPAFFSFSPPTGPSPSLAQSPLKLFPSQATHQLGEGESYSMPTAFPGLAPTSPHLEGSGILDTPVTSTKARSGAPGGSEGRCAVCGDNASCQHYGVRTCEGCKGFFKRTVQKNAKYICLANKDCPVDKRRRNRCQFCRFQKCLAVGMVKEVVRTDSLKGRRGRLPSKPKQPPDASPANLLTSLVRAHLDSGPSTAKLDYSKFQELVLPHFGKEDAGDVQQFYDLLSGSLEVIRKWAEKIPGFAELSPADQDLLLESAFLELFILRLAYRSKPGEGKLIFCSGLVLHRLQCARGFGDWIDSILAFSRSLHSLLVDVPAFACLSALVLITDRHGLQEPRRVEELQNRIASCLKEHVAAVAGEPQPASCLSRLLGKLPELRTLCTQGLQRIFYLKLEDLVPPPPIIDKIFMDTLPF
T2 sequence (P12813 whole entry): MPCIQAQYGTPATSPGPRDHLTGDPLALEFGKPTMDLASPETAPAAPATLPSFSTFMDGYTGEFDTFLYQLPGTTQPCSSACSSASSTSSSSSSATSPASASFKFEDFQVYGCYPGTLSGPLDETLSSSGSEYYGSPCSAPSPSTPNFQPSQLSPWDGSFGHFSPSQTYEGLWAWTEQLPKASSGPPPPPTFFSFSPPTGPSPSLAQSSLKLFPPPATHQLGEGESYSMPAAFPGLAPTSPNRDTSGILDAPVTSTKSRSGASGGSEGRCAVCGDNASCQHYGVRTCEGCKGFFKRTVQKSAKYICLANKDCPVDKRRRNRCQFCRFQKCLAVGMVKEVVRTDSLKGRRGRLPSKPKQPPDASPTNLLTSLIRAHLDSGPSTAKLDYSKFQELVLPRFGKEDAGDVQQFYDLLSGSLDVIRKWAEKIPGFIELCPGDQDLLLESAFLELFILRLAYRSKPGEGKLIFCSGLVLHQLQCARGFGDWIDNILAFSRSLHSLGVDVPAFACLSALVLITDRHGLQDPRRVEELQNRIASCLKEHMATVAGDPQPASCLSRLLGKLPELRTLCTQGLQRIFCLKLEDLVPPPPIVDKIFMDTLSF

For `CC1=C(O)C(=O)C=C2C1=CC=C1[C@@]2(C)CC[C@@]2(C)[C@@H]3C[C@](C)(C(=O)NCCOCCNc4cccc5c4C(=O)N(C4CCC(=O)NC4=O)C5=O)CC[C@]3(C)CC[C@]12C` (stereo partly drawn) [NR-C91], the NR4A1 degradation (NR4A1 [1]) was “led to the degradation of NR4A1, but not as efficiently as NR-V04” and the “NR4A1 degradation with overexpression of the corresponding E3 ligase” value (NR4A1 [2]) was “overexpression of their corresponding E3 ligases facilitated NR4A1-P-mediated degradation of NR4A1”.
With `CC1=C(O)C(=O)C=C2C1=CC=C1[C@@]2(C)CC[C@@]2(C)[C@@H]3C[C@](C)(C(=O)NCCOCCOCCOCCOCC(=O)N[C@H](C(=O)N4C[C@H](O)C[C@H]4C(=O)N[C@@H](C)c4ccc(-c5scnc5C)cc4)C(C)(C)C)CC[C@]3(C)CC[C@]12C` [NR-V04] the “central memory CD8+ T cells (CD44+CD62L+)” value (CD8+ T cells) was “no significant change”, the “effector memory population of CD8+ T cells (CD44+CD62L−)” value (CD8+ T cells) was “significant increase” and the “T cell populations other than Tregs” value (human T cells from PBMC) was “no impact on various T cell populations”. For the same molecule, the Tregs (human T cells from PBMC) was “selectively elimination of Tregs”, the NR4A1 degradation (NR4A1 [1]) was “best efficiency in inducing NR4A1 degradation” and the tumor volume (RENCA cells; 8 mg/kg i.p. weekly from day 15) was “significant reduction”. The TI-Tregs (RENCA cells; 20 mg/kg once a week for 3 weeks) was “decreased TI-Tregs”, the TI-Tregs (B16F10 melanoma [3]; B16F10, 1.8 mg/kg twice weekly for 3 weeks) was “decreased TI-Tregs” and the tumor growth (B16F10 melanoma [3]; B16F10 in C57BL/6J male mice, 1.8 mg/kg NR-V04 or 0.75 mg/kg celastrol twice weekly for 3 weeks) was “significantly reduces tumor growth”. The tumor suppressing effect (B16F10 melanoma [4]) was “this effect is diminished”, the body weight [5] was “did not influence the body weight” and the “development of T cells in thymus and spleen” value [5] was “did not change the normal development of T cells”. For the same molecule, the average half-life ([6]; ip injection 20 mg/kg) was 8.58 h, the average half-life ([6]; iv injection 2 mg/kg) was 5.36 h and the “NR4A1 degradation with overexpression of the corresponding E3 ligase” value (NR4A1 [2]) was “overexpression of their corresponding E3 ligases facilitated NR4A1-P-mediated degradation of NR4A1”. The “granzyme B+ active CD8 T cells” value (OT-1 CD8 T cells) was “increase”, the “percent of Lag3+ exhausted CD8 T cells” value (OT-1 CD8 T cells) was “significantly reduced” and the “percent of PD-1+ exhausted CD8 T cells” value (OT-1 CD8 T cells) was “significantly reduced”. For the same molecule, the “overall CD4+ and CD8+ T cells” value (Py8119 cells; Py8119, 8 mg/kg i.p. weekly) was “without influencing overall CD4+ and CD8+ T cells”, the “tumor-infiltrating Tregs versus effector T cell ratio” value (Py8119 cells; Py8119, 8 mg/kg i.p. weekly) was “On-target decrease” and the tumor growth (Py8119 cells; Py8119, 8 mg/kg i.p. weekly from day 15) was “Tumor growth difference was not observed”. The body weight (Py8119 cells; Py8119, 8 mg/kg i.p. weekly, day 25 or 30) was “no difference in body weight”, the “cell killing (% viability)” value (MCF7-Tam cells) was “more robust killing relative to celastrol or NR-V04-NT” and the “degradation of NR4A1 within tumors” value (NR4A1 [7]) was “efficient degradation of target protein NR4A1”. The “cell killing (% viability)” value (T47D cells) was “more robust killing relative to celastrol or NR-V04-NT” and the “toxicity to normal cells (% viability)” value (MCF10A) was “less toxic”.
With `CC1=C(O)C(=O)C=C2C1=CC=C1[C@@]2(C)CC[C@@]2(C)[C@@H]3C[C@](C)(C(=O)O)CC[C@]3(C)CC[C@]12C` [celastrol] the body weight [8] was “significant body weight change”.
For `CCCCCCCC(=O)c1c(O)cc(O)cc1CC(=O)OCC` [cytosporone-B], the Kd (NR4A1 [9]) is given as 1.68 µM.
